This note sets out measurements from BindingDB's records for patent US12552798 (Henan Zhiwei Biomedicine Co., 2026).

The IC50 is the concentration that inhibits the measured activity by half. Read a low IC50 as greater potency.

Assay in all cases: BTK, BMX, EGFR and ITK Inhibitory Assay
Assay [1] has as its target T1, Cytoplasmic tyrosine-protein kinase BMX (Homo sapiens, UniProt P51813).
T1 sequence (P51813 whole entry): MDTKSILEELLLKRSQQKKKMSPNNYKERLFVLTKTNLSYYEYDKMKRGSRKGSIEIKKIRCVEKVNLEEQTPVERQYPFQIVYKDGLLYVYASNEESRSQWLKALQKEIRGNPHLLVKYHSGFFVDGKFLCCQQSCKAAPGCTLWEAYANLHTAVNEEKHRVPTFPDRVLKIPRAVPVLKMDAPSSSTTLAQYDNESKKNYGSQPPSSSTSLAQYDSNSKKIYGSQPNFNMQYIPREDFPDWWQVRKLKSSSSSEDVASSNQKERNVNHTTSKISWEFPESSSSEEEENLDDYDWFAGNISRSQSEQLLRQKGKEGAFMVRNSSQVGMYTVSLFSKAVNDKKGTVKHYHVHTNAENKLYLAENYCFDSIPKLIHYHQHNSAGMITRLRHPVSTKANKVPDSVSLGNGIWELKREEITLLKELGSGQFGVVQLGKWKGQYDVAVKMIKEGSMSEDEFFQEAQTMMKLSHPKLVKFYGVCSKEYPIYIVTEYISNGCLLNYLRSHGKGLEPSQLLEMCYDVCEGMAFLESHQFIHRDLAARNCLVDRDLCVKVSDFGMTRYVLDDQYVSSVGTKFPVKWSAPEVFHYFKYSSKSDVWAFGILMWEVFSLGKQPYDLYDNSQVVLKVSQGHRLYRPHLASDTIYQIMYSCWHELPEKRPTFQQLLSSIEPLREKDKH
On the procedure: (§1) Kinase inhibitory activities of compounds were evaluated using the Enzyme-linked immunosorbent assay (ELISA). The kinase enzyme of BTK, BMX, EGFR and ITK were purchased from Carna Bioscience (Kobe, Japan). A total of 10 ng/mL antiphosphotyrosine (PY713) antibody (abcam, Cambridge Science Park, UK) was precoated in 96-well ELISA plates. The kinase enzymes in each reaction well were set to BTK (101.25 ng/mL), BMX (90 ng/mL), EGFR (90 ng/mL) or ITK (120 ng/mL) and incubated with indicated compounds in 1× reaction buffer (50 mmol/L HEPES pH 7.4, 20 mmol/L MgCl2, 0.1 mmol/L MnCl2, 1 mmol/L DTT) containing 20 μmol/L (the final concentration of substrate in ITK reaction was 30 μmol/L) substrate (NH2-ETVYSEVRK-biotin) at 25° C. for 1 h. Then, a total of 3 μmol/L ATP was added and the reaction was continued for 2 hrs. The products of reaction were transferred into 96-well ELISA plates containing antibody and incubated at 25° C. for 30 min. After incubation, the wells were washed with PBS and then incubated with horseradish peroxidase […]-conjugated streptavidin. The wells were visualized using 3,3′,5,5′-tetramethylbenzidine (TMB), and chromogenic reaction was ended with 2 mol/L H2SO4, the absorbance was read with a multimode plate reader (PerkinElmer, USA) at 450 nm. IC50 values and curve fits were obtained using Prism (GraphPad Software).

For assay [2], the target named is T2, Tyrosine-protein kinase ITK/TSK (Homo sapiens, UniProt Q08881).
T2 sequence (Q08881 whole entry): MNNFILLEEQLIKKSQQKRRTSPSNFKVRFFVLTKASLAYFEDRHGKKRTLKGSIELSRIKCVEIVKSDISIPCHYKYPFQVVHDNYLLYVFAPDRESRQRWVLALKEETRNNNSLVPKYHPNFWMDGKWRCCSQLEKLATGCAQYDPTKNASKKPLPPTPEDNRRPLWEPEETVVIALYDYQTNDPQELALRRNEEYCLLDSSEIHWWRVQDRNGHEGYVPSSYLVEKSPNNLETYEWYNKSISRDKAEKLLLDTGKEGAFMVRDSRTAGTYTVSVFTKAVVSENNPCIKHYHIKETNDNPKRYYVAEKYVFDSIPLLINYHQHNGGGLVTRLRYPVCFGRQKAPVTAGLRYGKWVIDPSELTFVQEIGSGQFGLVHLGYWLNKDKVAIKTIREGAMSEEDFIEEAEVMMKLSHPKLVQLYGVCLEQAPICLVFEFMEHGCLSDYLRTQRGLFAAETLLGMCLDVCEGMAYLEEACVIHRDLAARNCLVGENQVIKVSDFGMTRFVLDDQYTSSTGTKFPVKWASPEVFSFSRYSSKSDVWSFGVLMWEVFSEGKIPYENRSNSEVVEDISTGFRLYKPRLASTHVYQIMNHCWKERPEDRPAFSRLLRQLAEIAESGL
On the procedure: as §1

Assay [3] deals with Epidermal growth factor receptor (Homo sapiens, UniProt P00533). How it is done:
as §1

The target in assay [4] is Tyrosine-protein kinase BTK (Homo sapiens, UniProt Q06187). On the procedure:
as §1

Tyrosine-protein kinase BTK, sequence (Q06187 whole entry): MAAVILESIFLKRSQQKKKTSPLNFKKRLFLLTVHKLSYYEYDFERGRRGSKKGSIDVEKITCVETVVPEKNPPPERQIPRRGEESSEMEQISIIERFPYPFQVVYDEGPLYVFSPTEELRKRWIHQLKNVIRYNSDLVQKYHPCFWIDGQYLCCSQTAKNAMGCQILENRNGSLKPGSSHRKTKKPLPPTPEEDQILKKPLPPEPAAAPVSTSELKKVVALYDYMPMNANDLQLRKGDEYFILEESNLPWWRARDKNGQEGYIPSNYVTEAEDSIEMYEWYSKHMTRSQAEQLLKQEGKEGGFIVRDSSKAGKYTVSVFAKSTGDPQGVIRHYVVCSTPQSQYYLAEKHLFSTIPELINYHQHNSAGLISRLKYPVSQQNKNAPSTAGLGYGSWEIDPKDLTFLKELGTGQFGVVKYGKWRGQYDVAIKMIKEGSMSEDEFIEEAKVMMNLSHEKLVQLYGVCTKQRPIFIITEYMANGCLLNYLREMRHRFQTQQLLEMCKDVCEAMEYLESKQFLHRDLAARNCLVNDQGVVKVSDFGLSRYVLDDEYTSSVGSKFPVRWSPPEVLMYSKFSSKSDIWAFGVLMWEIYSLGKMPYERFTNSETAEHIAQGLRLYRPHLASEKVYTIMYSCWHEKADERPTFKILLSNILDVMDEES
Epidermal growth factor receptor, sequence (P00533 whole entry): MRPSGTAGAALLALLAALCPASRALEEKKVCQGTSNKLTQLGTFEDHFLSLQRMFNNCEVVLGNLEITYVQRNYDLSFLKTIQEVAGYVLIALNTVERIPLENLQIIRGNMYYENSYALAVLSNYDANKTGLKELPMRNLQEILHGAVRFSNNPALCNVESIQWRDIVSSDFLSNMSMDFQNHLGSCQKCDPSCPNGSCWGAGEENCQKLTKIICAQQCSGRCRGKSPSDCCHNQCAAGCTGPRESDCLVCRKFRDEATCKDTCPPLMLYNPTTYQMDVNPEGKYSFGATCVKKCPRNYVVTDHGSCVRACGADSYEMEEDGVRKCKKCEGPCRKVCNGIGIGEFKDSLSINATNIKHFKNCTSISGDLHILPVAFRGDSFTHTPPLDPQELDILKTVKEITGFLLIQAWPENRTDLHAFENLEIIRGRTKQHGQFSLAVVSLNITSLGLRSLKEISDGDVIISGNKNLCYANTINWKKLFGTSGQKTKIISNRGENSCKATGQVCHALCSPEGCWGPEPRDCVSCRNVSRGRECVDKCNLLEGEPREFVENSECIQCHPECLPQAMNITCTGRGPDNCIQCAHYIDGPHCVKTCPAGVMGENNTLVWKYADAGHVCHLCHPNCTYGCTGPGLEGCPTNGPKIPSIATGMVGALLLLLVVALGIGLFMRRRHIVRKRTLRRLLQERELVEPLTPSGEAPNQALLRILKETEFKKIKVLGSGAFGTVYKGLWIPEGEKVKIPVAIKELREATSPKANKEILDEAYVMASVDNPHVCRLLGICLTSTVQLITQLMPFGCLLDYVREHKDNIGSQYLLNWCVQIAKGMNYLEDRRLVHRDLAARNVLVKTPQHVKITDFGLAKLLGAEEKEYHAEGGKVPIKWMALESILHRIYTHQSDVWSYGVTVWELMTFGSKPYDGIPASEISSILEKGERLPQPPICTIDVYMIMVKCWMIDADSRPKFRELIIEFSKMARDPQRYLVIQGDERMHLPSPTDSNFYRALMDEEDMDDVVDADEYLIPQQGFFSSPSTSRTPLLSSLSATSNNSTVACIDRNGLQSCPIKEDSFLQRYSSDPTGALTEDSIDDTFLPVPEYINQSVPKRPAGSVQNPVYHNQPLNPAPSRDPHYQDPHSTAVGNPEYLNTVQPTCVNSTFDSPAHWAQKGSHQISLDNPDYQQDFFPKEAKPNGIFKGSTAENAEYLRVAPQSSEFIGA

For the compound `NC(=O)c1c(-c2ccc(Oc3ccccc3)cc2)nc2n1NCCC2C1CN(C(=O)/C=C/C(F)(F)F)C1` (stereo not given) [US12552798, Example 20], the IC50 in assay [1] came to 70.3 nM; in assay [2], 8650 nM; in assay [3], 3240 nM; in assay [4], 8 nM.
`CC#CC(=O)N1CC(C2CCNn3c2nc(-c2ccc(Oc4ccccc4)cc2)c3C(N)=O)C1` (stereo not given) [US12552798, Example 19] gave an IC50 in assay [4] of 230 nM.
